# According to PMC6934184, “Selective DNA-PKcs inhibition extends the therapeutic index of localized radiotherapy and chemotherapy” (The Journal of Clinical Investigation, 2019):
# Target: T1, FGR (Homo sapiens, UniProt P09769)
# T1 construct: purchased Thermo Fisher Scientific (Life Technologies) SelectScreen
# Test: SelectScreen Z'LYTE
# Assay type: biochemical
# Summary of the method: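 SelectScreen broad panel; activity (Z'LYTE, Adapta) plus binding formats. ATP: Km app for CSF1R Z'LYTE; 10 for CAMK1 Adapta. Readout = % per kinase.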
# T1 sequence (P09769 whole entry): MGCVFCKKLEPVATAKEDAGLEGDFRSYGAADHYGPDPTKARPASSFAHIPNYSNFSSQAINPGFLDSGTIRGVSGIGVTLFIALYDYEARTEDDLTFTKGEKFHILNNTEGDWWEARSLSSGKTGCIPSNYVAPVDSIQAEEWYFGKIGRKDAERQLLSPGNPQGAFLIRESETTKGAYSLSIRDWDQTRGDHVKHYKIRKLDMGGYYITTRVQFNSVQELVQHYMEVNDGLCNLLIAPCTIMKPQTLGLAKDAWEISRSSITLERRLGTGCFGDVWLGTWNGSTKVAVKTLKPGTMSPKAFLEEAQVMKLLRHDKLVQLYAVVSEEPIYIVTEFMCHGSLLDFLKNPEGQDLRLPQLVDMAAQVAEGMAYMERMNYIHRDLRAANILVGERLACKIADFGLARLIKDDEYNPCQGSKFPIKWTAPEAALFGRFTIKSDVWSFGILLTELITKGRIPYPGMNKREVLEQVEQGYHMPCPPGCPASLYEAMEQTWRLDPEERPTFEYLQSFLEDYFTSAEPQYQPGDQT
smiles,measurement,value
CN(C(=O)CN1CCOCC1)c1ccc2sc3c(-c4cccc5c(=O)cc(N6CC7CCC(C6)O7)oc45)cccc3c2c1 [NU5455],inhibition at 1 µM,12.1%
